The record followed here is patent US20260167615A1, “COMPOUNDS AND COMPOSITIONS AS GPR52 MODULATORS” (Neurocrine Biosciences, Inc., priority 2022, published 2026).

The assay addresses recombinant human GPR52 (Homo sapiens, UniProt Q9Y2T5). The assay is described as follows: HTRF cAMP assay, GPR52 activity (Example A). The assay is classed as cell-based. To be noted: for Emax: maximum cAMP at 10 μM or 31.6 μM test compound, as percentage of Emax of control compound 4-(3-(3-fluoro-5-(trifluoromethyl)benzyl)-5-methyl-4,5-dihydro-1H-1,2,4-triazol-1-yl)-2-methylbenzamide. As for the experimental part: Compounds of Formula I were assessed for their ability to modulate GPR52 activity. HTRF CAMP assays were performed using a commercially available assay kit (CAMP Gs HiRange HTRF®, CisBio). Controls and compounds were solubilized in DMSO and 62.5 nanoliters of the diluted compounds were transferred into 384-well NBS assay plates via acoustic or precision low-volume dispensing. Compounds were further diluted to 1× with the addition of 20,000 cells per well. Flp-In™—CHO cells that stably express recombinant human GPR52 were used in the assay.
Cells were harvested with cell stripper and resuspended in stimulation buffer. After thirty minutes incubation at room temperature, detection reagents were added to each well. Plates were then incubated for an additional 30 minutes at room temperature. CAMP produced by the cells during the first incubation period competes with d2-labeled CAMP for binding to an anti-cAMP monoclonal antibody labeled with europium cryptate. The measured signal was inversely proportional to the concentration of cAMP produced by the cells and this signal was quantified using a PHERAstar® multi-mode plate reader.
Dose-response curves were generated from the HTRF counts that have been transformed based on a CAMP referenced curve, and then normalized to the positive control. EC50 values were obtained using a nonlinear regression curve-fitting program. […] The Emax (Table 13) is the maximum amount of cAMP (nM) produced by incubation of the cells with 10 μM or 31.6 μM of a test compound. The compound is defined by the top plateau of the sigmoid curve fit. The curve is then normalized to a control compound, in this case 4-(3-(3-fluoro-5-(trifluoromethyl)benzyl)-5-methyl-4,5-dihydro-1H-1,2,4-triazol-1-yl)-2-methylbenzamide (Tokumaru, K., et al., “Design, synthesis, and pharmacological evaluation of 4-azolyl-benzamide derivatives as novel GPR52 agonists”, Bioorganic & Medicinal Chemistry, Volume 25, Issue 12, June 2017, pages 3098-3115), and expressed as a percentage of the Emax of that control compound.

The mark [1] stands for this setting: average EC50 (n=1 to 15), Flp-In-CHO cells stably expressing recombinant human GPR52, cAMP HTRF, read-out: EC50 (N=).

Where two headings read alike, the source gives them in different places.

Sequence of recombinant human GPR52 (Q9Y2T5 whole entry): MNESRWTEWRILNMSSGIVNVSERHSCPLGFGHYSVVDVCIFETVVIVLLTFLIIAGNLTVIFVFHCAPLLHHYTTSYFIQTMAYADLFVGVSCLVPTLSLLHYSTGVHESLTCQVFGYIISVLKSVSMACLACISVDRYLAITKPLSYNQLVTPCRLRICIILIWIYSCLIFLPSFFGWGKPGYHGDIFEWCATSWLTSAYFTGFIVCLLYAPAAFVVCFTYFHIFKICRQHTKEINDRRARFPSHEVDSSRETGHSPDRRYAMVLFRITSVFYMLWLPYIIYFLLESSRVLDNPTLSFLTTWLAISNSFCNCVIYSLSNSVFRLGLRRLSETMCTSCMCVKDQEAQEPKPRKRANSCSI

What is called EC50 is the concentration at which the effect is half-maximal. The Emax is the maximal effect, on the per cent scale that the assay sets. Consider `Cc1cc(-c2cc(Oc3cnc4c(c3)C=C(F)CC4)ccn2)ccc1C(N)=O` [Example 121, 4-(4-((6-fluoro-7,8-dihydroquinolin-3-yl)oxy)pyridin-2-yl)-2-methylbenzamide], for which the maximal effect (Emax) amounted to 78%. In addition, the EC50 under setting [1] was 1000 to 2000 nM.

Regarding `Cc1cc(-c2cc(Oc3ccc4cccnc4c3)ccn2)ccc1C(N)=O` [Example 88, 2-methyl-4-(4-(quinolin-7-yloxy)pyridin-2-yl)benzamide], the maximum response (Emax) worked out at 67%. The EC50 under setting [1] is 101 to 1000 nM.

`Cc1cc(-c2cc(Oc3ccc4ncncc4c3)ccn2)ccc1C(N)=O` [Example 124, 2-methyl-4-(4-(quinazolin-6-yloxy)pyridin-2-yl)benzamide]: the Emax is 100%. Besides, the concentration giving a half-maximal response (EC50) under setting [1] was in the range of 1000 to 2000 nM.

For `CCc1cc(-c2cc(Oc3cnc4cnn(C)c4c3)ccn2)ccc1C(N)=O` [Example 27, 2-ethyl-4-(4-((1-methyl-1H-pyrazolo[4,3-b]pyridin-6-yl)oxy)pyridin-2-yl)benzamide], the Emax was 99%. For the same molecule, the EC50 under setting [1] is 101 to 1000 nM.

For the molecule `CCc1cc(-c2cc(Oc3cc(F)c4ncccc4c3)ccn2)ccc1C(N)=O` [Example 97, 2-ethyl-4-(4-((8-fluoroquinolin-6-yl)oxy)pyridin-2-yl)benzamide], the maximum response (Emax) stood at 132%. Also, the EC50 under setting [1] lay in the range of 101 to 1000 nM.

Consider `Cc1cc(-c2cccc(Oc3ccc4cnn(C)c4c3)c2)ccc1C(N)=O` [Example 51, 3-methyl-3′-((1-methyl-1H-indazol-6-yl)oxy)-[1,1′-biphenyl]-4-carboxamide], for which the Emax was found to be 96%. The EC50 under setting [1] fell in the range of 1000 to 2000 nM.

Take `Cc1cc(-c2cc(Oc3ccc4c(c3)OCO4)ccn2)ccc1C(N)=O` [Example 85, 4-(4-(benzo[d][1,3]dioxol-5-yloxy)pyridin-2-yl)-2-methylbenzamide]: the Emax was 106%. For the same molecule, under setting [1], the EC50 is 101 to 1000 nM.

`Cc1cc(-c2cccc(Oc3ccc4cnn(C)c4c3)n2)ccc1C(N)=O` [Example 9, 2-methyl-4-(6-((1-methyl-1H-indazol-6-yl)oxy)pyridin-2-yl)benzamide]: the Emax was determined as 91%. Besides, under setting [1], the EC50 was in the range of 1000 to 2000 nM.

With `Cc1cc(-c2cc(Oc3ccc4cnn(C)c4c3)ccn2)ccc1C(N)=O` [Example 43, 2-methyl-4-(4-((1-methyl-1H-indazol-6-yl)oxy)pyridin-2-yl)benzamide], the maximal effect (Emax) is 103%. Moreover, under setting [1], the concentration for a half-maximal effect (EC50) was in the range of 101 to 1000 nM.

Turning to `CCc1cc(-c2cc(Oc3cnc4cc(F)c(F)cc4c3)ccn2)ccc1C(N)=O` [Example 113, 4-(4-((6,7-difluoroquinolin-3-yl)oxy)pyridin-2-yl)-2-ethylbenzamide], the maximum response (Emax) amounted to 95%. Also, the 50% effective concentration (EC50) under setting [1] fell in the range of 101 to 1000 nM.

Regarding `CCc1cc(-c2cc(Oc3ccc4cnn(C)c4c3)cc3nccn23)ccc1C(N)=O` [Example 26, 2-ethyl-4-(7-((1-methyl-1H-indazol-6-yl)oxy)imidazo[1,2-a]pyridin-5-yl)benzamide], the maximal effect (Emax) came out at 75%. Also, the concentration for a half-maximal effect (EC50) under setting [1] was 25 to 100 nM.

With `Cc1cc(-c2cc(Oc3ccc4c(N)nn(C)c4c3)ccn2)ccc1C(N)=O` [Example 49, 4-(4-((3-amino-1-methyl-1H-indazol-6-yl)oxy)pyridin-2-yl)-2-methylbenzamide], the maximal effect (Emax) worked out at 53%. For the same molecule, the EC50 under setting [1] lay within 101 to 1000 nM.

As to `CCc1cc(-c2cc(Oc3cnc4cc(F)ccc4c3)ccn2)ccc1C(N)=O` [Example 101, 2-ethyl-4-(4-((7-fluoroquinolin-3-yl)oxy)pyridin-2-yl)benzamide], the Emax amounted to 80%. For the same molecule, the EC50 under setting [1] is 101 to 1000 nM.

As to `Cc1cc(-c2cc(Oc3ccc4nn(C)cc4c3)ccn2)ccc1C(N)=O` [Example 6, 2-methyl-4-(4-((2-methyl-2H-indazol-5-yl)oxy)pyridin-2-yl)benzamide], the Emax stood at 110%. Besides, the EC50 under setting [1] is 101 to 1000 nM.

For the molecule `CCc1cc(-c2cc(Oc3cnc4c(c3)C=C(F)CC4)ccn2)ccc1C(N)=O` [Example 122, 2-ethyl-4-(4-((6-fluoro-7,8-dihydroquinolin-3-yl)oxy)pyridin-2-yl)benzamide], the Emax turned out to be 121%. Besides, the EC50 under setting [1] fell in the range of 101 to 1000 nM.

Take `CCc1cc(-c2cc(Oc3cnc4c(c3)CCCO4)ccn2)ccc1C(N)=O` [Example 123, 4-(4-((3,4-dihydro-2H-pyrano[2,3-b]pyridin-6-yl)oxy)pyridin-2-yl)-2-ethylbenzamide]: the Emax is 88%. Also, under setting [1], the EC50 is 101 to 1000 nM.

Turning to `Cc1cc(-c2cc(Oc3ccc4ccncc4c3)ccn2)ccc1C(N)=O` [Example 79, 4-(4-(isoquinolin-7-yloxy)pyridin-2-yl)-2-methylbenzamide], the maximal effect (Emax) was found to be 60%. For the same molecule, the concentration giving a half-maximal response (EC50) under setting [1] is 101 to 1000 nM.

In the case of `Cc1nn(C)c2cc(Oc3ccnc(-c4ccc(C(N)=O)c(Cl)c4)c3)ccc12` [Example 40, 2-chloro-4-(4-((1,3-dimethyl-1H-indazol-6-yl)oxy)pyridin-2-yl)benzamide], the Emax amounted to 92%. Moreover, the EC50 under setting [1] lay in the range of 25 to 100 nM.

In the case of `Cc1cc(-c2cc(Oc3cnc4ccc(Cl)cc4c3)ccn2)ccc1C(N)=O` [Example 111, 4-(4-((6-chloroquinolin-3-yl)oxy)pyridin-2-yl)-2-methylbenzamide], the Emax was found to be 88%. In addition, under setting [1], the EC50 is 101 to 1000 nM.

On to `Cc1cc(-c2cc(Oc3ccc4ncn(C)c4c3)ccn2)ccc1C(N)=O` [Example 8, 2-methyl-4-(4-((1-methyl-1H-benzo[d]imidazol-6-yl)oxy)pyridin-2-yl)benzamide], for which the Emax worked out at 68%. Further, under setting [1], the concentration for a half-maximal effect (EC50) was in the range of 1000 to 2000 nM.

Regarding `Cc1cc(-c2cncc(Oc3ccc4nn(C)cc4c3)n2)ccc1C(N)=O` [Example 10, 2-methyl-4-(6-((2-methyl-2H-indazol-5-yl)oxy)pyrazin-2-yl)benzamide], the maximal response (Emax) worked out at 106%. Moreover, under setting [1], the EC50 lay in the range of 101 to 1000 nM.

Turning to `CCc1cc(-c2cc(Oc3ccc4cnn(C)c4c3)ccn2)ccc1C(N)=O` [Example 2, 2-ethyl-4-{4-[(1-methyl-1H-indazol-6-yl)oxy]pyridin-2-yl}benzamide], the Emax was found to be 98%. Further, the EC50 under setting [1] is 101 to 1000 nM.

`CCc1cc(-c2cc(Oc3ccc4c(c3)c(C)nn4C)ccn2)ccc1C(N)=O` [Example 57, 4-(4-((1,3-dimethyl-1H-indazol-5-yl)oxy)pyridin-2-yl)-2-ethylbenzamide]: the maximal response (Emax) was determined as 104%. The EC50 under setting [1] is 25 to 100 nM.

Regarding `CCc1cc(-c2cc(Oc3cnc4c(F)c(F)ccc4c3)ccn2)ccc1C(N)=O` [Example 115, 4-(4-((7,8-difluoroquinolin-3-yl)oxy)pyridin-2-yl)-2-ethylbenzamide], the Emax is 100%. The 50% effective concentration (EC50) under setting [1] fell in the range of 101 to 1000 nM.

Regarding `Cc1cc(-c2cc(Oc3ccc4c(c3)c(C)nn4C)ccn2)ccc1C(N)=O` [Example 58, 4-(4-((1,3-dimethyl-1H-indazol-5-yl)oxy)pyridin-2-yl)-2-methylbenzamide], the Emax came out at 108%. For the same molecule, the EC50 under setting [1] fell in the range of 25 to 100 nM.

As to `Cc1cc(-c2cc(Oc3ccc4cnn(C)c4c3)cc(CN)n2)ccc1C(N)=O` [Example 94, 4-(6-(aminomethyl)-4-((1-methyl-1H-indazol-6-yl)oxy)pyridin-2-yl)-2-methylbenzamide], the maximal effect (Emax) amounted to 129%. For the same molecule, the 50% effective concentration (EC50) under setting [1] was 101 to 1000 nM.

Regarding `CCc1cc(-c2cccc(Oc3cnc4c(C)nn(C)c4c3)c2)ccc1C(=O)NC` [Example 66, 3′-((1,3-dimethyl-1H-pyrazolo[4,3-b]pyridin-6-yl)oxy)-3-ethyl-N-methyl-[1,1′-biphenyl]-4-carboxamide], the Emax was found to be 87%. In addition, the EC50 under setting [1] lay in the range of 101 to 1000 nM.

In the case of `CCc1cc(-c2cc(Oc3ccc4c(c3)NCCO4)ccn2)ccc1C(N)=O` [Example 68, 4-(4-((3,4-dihydro-2H-benzo[b][1,4]oxazin-6-yl)oxy)pyridin-2-yl)-2-ethylbenzamide], the Emax is 131%. The EC50 under setting [1] is below 25 nM.

On to `CCc1cc(-c2cc(Oc3cnc4c(c3)c(C(F)(F)F)nn4C)cc(N)n2)ccc1C(N)=O` [Example 24, 4-(6-amino-4-((1-methyl-3-(trifluoromethyl)-1H-pyrazolo[3,4-b]pyridin-5-yl)oxy)pyridin-2-yl)-2-ethylbenzamide], for which the Emax was 110%. The concentration for a half-maximal effect (EC50) under setting [1] lay within 101 to 1000 nM.

On to `Cc1cc(-c2cc(Oc3ccc4c(c3)c(C)nn4C)ccn2)ccc1C(N)=O` [drawing 5], for which, for the setting “comparison of position of the nitrogen in the pyridine ring relative to the oxygen linker, read-out: Activity EC50”, the EC50 came to 89 nM.

As to `CCc1cc(-c2cc(Oc3ccc4cnccc4c3)ccn2)ccc1C(N)=O` [Example 71, 2-ethyl-4-(4-(isoquinolin-6-yloxy)pyridin-2-yl)benzamide], the Emax stood at 107%. Under setting [1], the EC50 is 25 to 100 nM.
